Measurements published in ChEMBL document CHEMBL1143880, “Targeting gastrin-releasing peptide receptors of prostate cancer cells for photodynamic therapy with a phthalocyanine-bombesin conjugate” (Bioorg Med Chem Lett, 2008).

Biological target: Gastrin-releasing peptide receptor (Homo sapiens, UniProt P30550)
Test: Displacement of 125I[Tyr4]-bombesin from GRPR expressed in human PC3 cells
Assay type: cell-based, PC-3

Chain of Gastrin-releasing peptide receptor (P30550 whole entry): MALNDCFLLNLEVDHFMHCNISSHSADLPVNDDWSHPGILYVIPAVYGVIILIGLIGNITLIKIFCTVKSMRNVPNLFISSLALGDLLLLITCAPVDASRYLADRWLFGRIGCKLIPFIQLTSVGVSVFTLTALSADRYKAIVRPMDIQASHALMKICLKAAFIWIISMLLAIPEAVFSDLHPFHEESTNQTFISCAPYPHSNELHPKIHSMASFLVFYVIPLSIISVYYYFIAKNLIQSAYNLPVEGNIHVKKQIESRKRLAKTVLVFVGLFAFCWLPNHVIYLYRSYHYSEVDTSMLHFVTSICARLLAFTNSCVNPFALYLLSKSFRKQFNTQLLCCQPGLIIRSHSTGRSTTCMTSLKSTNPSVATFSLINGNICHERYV

EC50: 0.373 nM
Compound: CSCC[C@H](NC(=O)[C@H](CC(C)C)NC(=O)[C@H](Cc1cnc[nH]1)NC(=O)CNC(=O)[C@@H](NC(=O)[C@H](C)NC(=O)[C@H](Cc1c[nH]c2ccccc12)NC(=O)[C@H](CCC(N)=O)NC(=O)CCCCCCCNC(=O)CCCCCN)C(C)C)C(N)=O
